Assay results taken from patent publication US20090233899A1, “Crystalline Modification of Cefuroximaxetil” (Gruenenthal GmbH, priority 2006, published 2009).

Test: Binary mixtures of the ε-modification with the α-, β- or γ-modification in methanol and acetone (relative thermodynamic stability)
Type: physicochemical

CO/N=C(\C(=O)N[C@@H]1C(=O)N2C(C(=O)OC(C)OC(C)=O)=C(COC(N)=O)CS[C@H]12)c1ccco1 (stereo partly shown) [ε-modification, cefuroximaxetil]
thermodynamic stability relative to the other crystalline modifications: more stable than the α-, β- or γ-modification
